From patent EP0394122A2, “Use of tetracyclines to manufacture a medicament for the treatment and prevention of AIDS” (priority 1989, dated 1990)

Key:
[1] = test system: virus HIV (LAV-1-BRU); assay: Protection against the cytopathogenic effect of HIV in infected CEM clone 13 cells (MTT viability); format: cell-based
Method: (§1) Le test est réalisé sur la lignée lymphoblastoïde CEM clone 13. Dans une microplaque de 96 puits on dépose 25 µl/puits d'une solution de produit à tester ou de tampon phosphate isotonique (TPI) dans le cas des contrôles. Les produits sont étudiés à différentes concentrations (souvent 8), à raison de 4 puits par concentration. On ajoute alors 125 µl d'une suspension de cellules CEM dans le milieu RPMI contenant 10 % de sérum de veau foetal, 40 U/ml de pénicilline, 40 µg/ml de streptomycine et 5 µg/ml de polybrène (3500 cellules par puits) et les microplaques sont incubées une heure à 37°C, sous une atmosphère contenant 5 % de gaz carbonique. Pour chaque concentration, l'essai est partagé en 2 parties : une partie sur cellules infectées, pour la détermination de l'activité antivirale et l'autre partie sur cellules non infectées, pour déterminer la cytotoxicité des produits. On infecte alors la première série avec HIV (100 µl par puit d'une suspension de virus LAV-1-BRU contenant 200-300 TCID50) tandis que l'autre série reçoit 100 µl de milieu RPMI tel que défini précédemment. Au bout de 7 jours d'incubation, 175 µl de surnageant sont prélevés et rejetés. La viabilité cellulaire est déterminée selon une modification de la technique décrite par R. Pauwels et coll., J. Virol. Meth., 20, 309-321 (1988).
(§2) Les puits, contenant encore les cellules (infectées ou non infectées), reçoivent 10 µl d'une solution de MTT (méthylthiazoletétrazolium) à 5 mg/ml dans du tampon phosphate isotonique. Pendant une période d'incubation de 4 heures, le MTT est converti en un sel de formazan (bleu) à l'intérieur des cellules vivantes et proportionnellement à leur nombre, alors que rien n'apparaît dans les puits ne contenant plus que des cellules mortes. On ajoute alors 120 µl d'isopropanol (contenant 0,04 mole/l d'acide chlorhydrique) et les microplaques sont agitées jusqu'à la solubilisation du bleu de formazan. L'absorption à 540 nm est lue avec un lecteur automatique de réactions ELISA en microplaques.
(§3) Pour les essais de plus longue durée, on procède comme décrit précédemment jusqu'au jour 7. A ce moment, 100 µl de cellules sont prélevés pour mesurer la proportion de cellules vivantes et le restant est remis en culture avec du milieu frais contenant les produits aux mêmes concentrations. Cette opération est répétée tous les 4 jours.

[2] = test system: lignée lymphoblastoïde CEM clone 13; assay: Cytotoxicity on non-infected CEM clone 13 cells (MTT viability); format: cell-based, humaines
Method: as §1, with “Dans” for “Le test est réalisé sur la lignée lymphoblastoïde CEM clone 13. Dans”, “Virol.” for “Virol. Meth., 20, 309-321 (1988).”
as §2, §3

CN(C)c1ccc(O)c2c1C[C@H]1C[C@H]3[C@H](N(C)C)C(O)=C(C(N)=O)C(=O)[C@@]3(O)C(O)=C1C2=O [Exemple 5, minocycline]
Cellules infectées Densité optique ([1]; 0,01 µg/ml, JOUR 14): 0,300
Cellules infectées Densité optique ([1]; 0,01 µg/ml, JOUR 18): 0,250
Cellules infectées Densité optique ([1]; 0,01 µg/ml, day 7): 0,660
Cellules infectées Densité optique ([1]; 0,04 µg/ml, JOUR 14): 0,450
Cellules infectées Densité optique ([1]; 0,04 µg/ml, JOUR 18): 0,250
Cellules infectées Densité optique ([1]; 0,04 µg/ml, day 7): 0,720
Cellules infectées Densité optique ([1]; 0,12 µg/ml, JOUR 14): 0,620
Cellules infectées Densité optique ([1]; 0,12 µg/ml, JOUR 18): 0,450
Cellules infectées Densité optique ([1]; 0,12 µg/ml, day 7): 0,890
Cellules infectées Densité optique ([1]; 0,37 µg/ml, JOUR 14): 1,250
Cellules infectées Densité optique ([1]; 0,37 µg/ml, JOUR 18): 1,000
Cellules infectées Densité optique ([1]; 0,37 µg/ml, day 7): 1,210
Cellules infectées Densité optique ([1]; 10 µg/ml, JOUR 14): 0,100
Cellules infectées Densité optique ([1]; 10 µg/ml, JOUR 18): 0,100
Cellules infectées Densité optique ([1]; 10 µg/ml, day 7): 0,450
Cellules infectées Densité optique ([1]; 30 µg/ml, day 7): 0,320
Cellules infectées Densité optique ([1]; 1,11 µg/ml, JOUR 14): 1,250
Cellules infectées Densité optique ([1]; 1,11 µg/ml, JOUR 18): 0,950
Cellules infectées Densité optique ([1]; 1,11 µg/ml, day 7): 1,510
Cellules infectées Densité optique ([1]; 3,33 µg/ml, JOUR 14): 0,400
Cellules infectées Densité optique ([1]; 3,33 µg/ml, JOUR 18): 0,350
Cellules infectées Densité optique ([1]; 3,33 µg/ml, day 7): 1,340
Cellules non infectées Densité optique ([2]; 0,01 µg/ml, JOUR 14): 1,100
Cellules non infectées Densité optique ([2]; 0,01 µg/ml, JOUR 18): 1,050
Cellules non infectées Densité optique ([2]; 0,01 µg/ml, day 7): 1,590
Cellules non infectées Densité optique ([2]; 0,04 µg/ml, JOUR 14): 1,250
Cellules non infectées Densité optique ([2]; 0,04 µg/ml, JOUR 18): 1,050
Cellules non infectées Densité optique ([2]; 0,04 µg/ml, day 7): 1,650
Cellules non infectées Densité optique ([2]; 0,12 µg/ml, JOUR 14): 1,200
Cellules non infectées Densité optique ([2]; 0,12 µg/ml, JOUR 18): 1,100
Cellules non infectées Densité optique ([2]; 0,12 µg/ml, day 7): 1,750
Cellules non infectées Densité optique ([2]; 0,37 µg/ml, JOUR 14): 1,250
Cellules non infectées Densité optique ([2]; 0,37 µg/ml, JOUR 18): 1,150
Cellules non infectées Densité optique ([2]; 0,37 µg/ml, day 7): 1,670
Cellules non infectées Densité optique ([2]; 10 µg/ml, JOUR 14): 0,100
Cellules non infectées Densité optique ([2]; 10 µg/ml, JOUR 18): 0,100
Cellules non infectées Densité optique ([2]; 10 µg/ml, day 7): 0,480
Cellules non infectées Densité optique ([2]; 30 µg/ml, day 7): 0,420
Cellules non infectées Densité optique ([2]; 1,11 µg/ml, JOUR 14): 1,200
Cellules non infectées Densité optique ([2]; 1,11 µg/ml, JOUR 18): 1,100
Cellules non infectées Densité optique ([2]; 1,11 µg/ml, day 7): 1,760
Cellules non infectées Densité optique ([2]; 3,33 µg/ml, JOUR 14): 0,350
Cellules non infectées Densité optique ([2]; 3,33 µg/ml, JOUR 18): 0,400
Cellules non infectées Densité optique ([2]; 3,33 µg/ml, day 7): 1,650

doxycycline [Exemple 2]
Cellules infectées Densité optique ([1]; 0,01 µg/ml, JOUR 14): 0,250
Cellules infectées Densité optique ([1]; 0,01 µg/ml, JOUR 18): 0,240
Cellules infectées Densité optique ([1]; 0,01 µg/ml, day 7): 0,820
Cellules infectées Densité optique ([1]; 0,04 µg/ml, JOUR 14): 0,300
Cellules infectées Densité optique ([1]; 0,04 µg/ml, JOUR 18): 0,275
Cellules infectées Densité optique ([1]; 0,04 µg/ml, day 7): 0,785
Cellules infectées Densité optique ([1]; 0,12 µg/ml, JOUR 14): 0,450
Cellules infectées Densité optique ([1]; 0,12 µg/ml, JOUR 18): 0,250
Cellules infectées Densité optique ([1]; 0,12 µg/ml, day 7): 0,720
Cellules infectées Densité optique ([1]; 0,37 µg/ml, JOUR 14): 0,550
Cellules infectées Densité optique ([1]; 0,37 µg/ml, JOUR 18): 0,300
Cellules infectées Densité optique ([1]; 0,37 µg/ml, day 7): 1,000
Cellules infectées Densité optique ([1]; 10 µg/ml, JOUR 14): 0,100
Cellules infectées Densité optique ([1]; 10 µg/ml, JOUR 18): 0,100
Cellules infectées Densité optique ([1]; 10 µg/ml, day 7): 0,660
Cellules infectées Densité optique ([1]; 30 µg/ml, day 7): 0,200
Cellules infectées Densité optique ([1]; 1,11 µg/ml, JOUR 14): 0,880
Cellules infectées Densité optique ([1]; 1,11 µg/ml, JOUR 18): 0,700
Cellules infectées Densité optique ([1]; 1,11 µg/ml, day 7): 1,240
Cellules infectées Densité optique ([1]; 3,33 µg/ml, JOUR 14): 0,750
Cellules infectées Densité optique ([1]; 3,33 µg/ml, JOUR 18): 0,750
Cellules infectées Densité optique ([1]; 3,33 µg/ml, day 7): 1,370
Cellules non infectées Densité optique ([2]; 0,01 µg/ml, JOUR 14): 0,980
Cellules non infectées Densité optique ([2]; 0,01 µg/ml, JOUR 18): 1,100
Cellules non infectées Densité optique ([2]; 0,01 µg/ml, day 7): 1,530
Cellules non infectées Densité optique ([2]; 0,04 µg/ml, JOUR 14): 0,950
Cellules non infectées Densité optique ([2]; 0,04 µg/ml, JOUR 18): 1,050
Cellules non infectées Densité optique ([2]; 0,04 µg/ml, day 7): 1,34
Cellules non infectées Densité optique ([2]; 0,12 µg/ml, JOUR 14): 1,020
Cellules non infectées Densité optique ([2]; 0,12 µg/ml, JOUR 18): 1,020
Cellules non infectées Densité optique ([2]; 0,12 µg/ml, day 7): 1,53
Cellules non infectées Densité optique ([2]; 0,37 µg/ml, JOUR 14): 1,000
Cellules non infectées Densité optique ([2]; 0,37 µg/ml, JOUR 18): 1,000
Cellules non infectées Densité optique ([2]; 0,37 µg/ml, day 7): 1,60
Cellules non infectées Densité optique ([2]; 10 µg/ml, JOUR 14): 0,100
Cellules non infectées Densité optique ([2]; 10 µg/ml, JOUR 18): 0,100
Cellules non infectées Densité optique ([2]; 10 µg/ml, day 7): 0,740
Cellules non infectées Densité optique ([2]; 30 µg/ml, day 7): 0,2
Cellules non infectées Densité optique ([2]; 1,11 µg/ml, JOUR 14): 0,960
Cellules non infectées Densité optique ([2]; 1,11 µg/ml, JOUR 18): 1,020
Cellules non infectées Densité optique ([2]; 1,11 µg/ml, day 7): 1,50
Cellules non infectées Densité optique ([2]; 3,33 µg/ml, JOUR 14): 0,950
Cellules non infectées Densité optique ([2]; 3,33 µg/ml, JOUR 18): 0,950
Cellules non infectées Densité optique ([2]; 3,33 µg/ml, day 7): 1,50
